Consider 5 molecules from patent publication EP0362645B1, “Use of pteridines in the prevention of the primary and secondary resistance during chemotherapy, and medicaments containing these compounds” (Dr. Karl Thomae GmbH, priority 1988, dated 1990).

This assay relates to adriamycinresistente S 180 Maus Sarcomazellen. The assay can be described thus: MTT proliferation/cytotoxicity assay on adriamycin-resistant S 180 sarcoma cells, with or without adriamycin (sensitisation). The format is cell-based. The following applies: S-180, 144 h, six days culture, MTT readout. The text has this:
Beispielsweise wurde die Sensibilisierung durch die Verbindungen A = 4-[N-(2-Hydroxy-2-methyl-propyl)-ethanolamino]-2,7-bis-(2,6-dimethyl-morpholino)-6-phenyl-pteridin, B = 4-Ethyl-ethanolamino-2,7-bis(2,6-dimethyl-morpholino)-6-phenyl-pteridin, C = 4-Ethanol-isopropanolamino-2,7-bis(2,6-dimethyl-morpholino)-6-phenyl-pteridin, D = 4-Diethanolamino-2,7-bis(2,6-dimethyl-morpholino)-6-phenyl-pteridin und E = 4-[N-(2-Hydroxy-2-methyl-propyl)-ethanolamino]-2,7-bis(cis-2,6-dimethyl-morpholino)-6-phenyl-pteridin am Beispiel von gegen Adriamycin resistenten Zellen wie folgt geprüft: Proliferierende, adriamycinresistente S 180 Maus Sarcomazellen werden in Anwesenheit unterschiedlicher Konzentrationen Testsubstanzen für sechs Tage kultiviert. Zytotoxisch oder zytostatisch wirkende Konzentrationen der Testsubstanzen werden durch vermindertes Zellwachstum oder durch das Absterben der Zellen angezeigt. Endpunkt des Assays ist die Zahl der lebenden Zellen pro Kultur, die indirekt ermittelt wird, indem die Eigenschaft vitaler Zellen, den Farbstoff MTT [= 3-(4,5-Dimethylthiazol-2-yl)-2,5-diphenyltetrazoliumbromid] zum farbigen Formazan zu reduzieren, ausgenützt wird. Als IC50 wird die Konzentration einer Testsubstanz bezeichnet, welche die Zahl der vitalen Zellen pro Kulturgefäß auf 50 % der unbehandelten Kontrolle reduziert. Die Testsubstanzen werden sowohl in Abwesenheit von Adriamycin als auch in Anwesenheit einer unter Kulturbedingungen nicht proliferationshemmend wirkenden Menge Adriamycin getestet. Pro Testsubstanz erhält man daher zwei IC50-Werte, einen in Anwesenheit (IC50 ADR), den anderen in Abwesenheit (IC50) von Adriamycin. Die Differenz der Zehnerlogarithmen der beiden IC50-Werte: Δ = 1gIC50-1gIC50 ADR ist ein Maß für die Erhöhung der Zytotoxizität der Testsubstanz durch Adriamycin.
Exponentiell wachsende, adriamycinresistente oder adriamycinsensitive S 180-Zellen werden in 96-Loch Flachboden-Mikrotiterplatten zu 2000 Zellen pro Loch in 100 »l Wachstumsmedium (RPMI-1640, das 10 % fötales Rinderserum enthält) ausplattiert. Die Kulturplatten werden im Brutschrank bei 37°C, 5 % CO₂ und 100 % relativer Luftfeuchtigkeit inkubiert. Nach 24 Stunden werden pro Loch 50 »l Wachstumsmedium, das unterschiedliche Konzentrationen an Testsubstanz enthält, und 50 »l Wachstumsmedium mit oder ohne Adriamycin hinzugefügt. Im Anschluß an eine weitere sechstägige Kultivierung werden 50 »l Tetrazoliumsalzlösung [5 mg 3-(4,5-Dimethylthiazol-2-yl)-2,5-diphenyltetrazoliumbromid pro ml Phosphat-gepufferter Salinelösung, vor Gebrauch 1:5 (v/v) mit RPMI-1640 verdünnt] in jedes Loch pipettiert. Nach vier Stunden Inkubation wird das Kulturmedium vorsichtig abgesaugt und intrazellulär gebildetes Formazan durch 150 »l Dimethylsulfoxid pro Loch solubilisiert. Die Platten werden kurz geschüttelt und die optische Dichte bei 570 nm mit einem Photometer wie einem Dynatech MR-600-Gerät gemessen. Die Bildung des farbigen Formazans durch Reduktion des Tetrazoliumsalzes ist proportional der Zahl der lebenden Zellen. Die Mittelwerte von Dreifach-Bestimmungen wurden bei der Berechnung der IC50-Werte verwendet (Verdünnungsstufe: 1:2).

[1] abbreviates: Tabelle 2, Adriamycin 100 ng/ml.

For `CC1CN(c2nc(N(CCO)CC(C)(C)O)c3nc(-c4ccccc4)c(N4CC(C)OC(C)C4)nc3n2)CC(C)O1` (centres unmarked) [A, 4-[N-(2-Hydroxy-2-methyl-propyl)-ethanolamino]-2,7-bis-(2,6-dimethyl-morpholino)-6-phenyl-pteridin], the half-maximal inhibitory concentration (IC50) (Tabelle 1, Adriamycin 0 ng/ml) was found to be 20.7 µg/mL; the IC50 (Tabelle 1, Adriamycin 25 ng/ml) was 1.49 µg/mL; the IC50 (Tabelle 2, Adriamycin 0 ng/ml) stood at 20.7 µg/mL; the IC50 under setting [1] is less than 0.5 µg/mL.
In the case of `CC(O)CN(CCO)c1nc(N2CC(C)OC(C)C2)nc2nc(N3CC(C)OC(C)C3)c(-c3ccccc3)nc12` (centres unmarked) [C, 4-Ethanol-isopropanolamino-2,7-bis(2,6-dimethyl-morpholino)-6-phenyl-pteridin], the IC50 runs as follows: (Tabelle 1, Adriamycin 0 ng/ml) 12.8 µg/mL; (Tabelle 1, Adriamycin 25 ng/ml) 3.77 µg/mL; (Tabelle 2, Adriamycin 0 ng/ml) 12.8 µg/mL; under setting [1], 0.82 µg/mL.
With `CC1CN(c2nc(N(CCO)CCO)c3nc(-c4ccccc4)c(N4CC(C)OC(C)C4)nc3n2)CC(C)O1` (centres unmarked) [D, 4-Diethanolamino-2,7-bis(2,6-dimethyl-morpholino)-6-phenyl-pteridin], the IC50 came to 14.4 µg/mL (Tabelle 1, Adriamycin 0 ng/ml); 5.78 µg/mL (Tabelle 1, Adriamycin 25 ng/ml); 14.4 µg/mL (Tabelle 2, Adriamycin 0 ng/ml); 1.57 µg/mL under setting [1].
As to `C[C@@H]1CN(c2nc(N(CCO)CC(C)(C)O)c3nc(-c4ccccc4)c(N4C[C@@H](C)O[C@@H](C)C4)nc3n2)C[C@H](C)O1` [E, 4-[N-(2-Hydroxy-2-methyl-propyl)-ethanolamino]-2,7-bis(cis-2,6-dimethyl-morpholino)-6-phenyl-pteridin], the half-maximal inhibitory concentration (IC50) is, setting by setting: (Tabelle 1, Adriamycin 0 ng/ml) 7.5 µg/mL; (Tabelle 1, Adriamycin 25 ng/ml) 0.5 µg/mL; (Tabelle 2, Adriamycin 0 ng/ml) 7.5 µg/mL; under setting [1], 0.1 µg/mL.
With `CCN(CCO)c1nc(N2CC(C)OC(C)C2)nc2nc(N3CC(C)OC(C)C3)c(-c3ccccc3)nc12` (centres unmarked) [B, 4-Ethyl-ethanolamino-2,7-bis(2,6-dimethyl-morpholino)-6-phenyl-pteridin], the IC50 is, setting by setting: (Tabelle 1, Adriamycin 0 ng/ml) greater than 31.6 µg/mL; (Tabelle 1, Adriamycin 25 ng/ml) 4.43 µg/mL; (Tabelle 2, Adriamycin 0 ng/ml) greater than 31.6 µg/mL; under setting [1], 0.77 µg/mL.

Usually IC50 stands for the point on the concentration scale where inhibition reaches its midpoint.
